According to the NIST ThermoML archive (doi:10.1016/j.jct.2012.01.022):
Numbers after ± are expanded uncertainties.

Experiment: xn = mol fraction of the nth substance listed
Settings: 101 kPa, Liquid; for speed of sound: Sing-around technique in a fixed-path interferometer; for mass density: Vibrating tube method; for viscosity: Capillary tube (Ostwald / Ubbelohde) method

NCCN [ethane-1,2-diamine] + CCCCCCO
Settings | mass density [kg/m3] | speed of sound [m/s] | viscosity [mPa·s]
293.15 K, x1 = 0.0773 | 824.126 ± 0.39 | 1338.6 ± 1.6 | –
293.15 K, x1 = 0.1231 | 827.205 ± 0.38 | 1348.9 ± 1.6 | –
293.15 K, x1 = 0.1604 | 829.772 ± 0.38 | 1358.1 ± 1.6 | –
293.15 K, x1 = 0.1925 | 831.826 ± 0.37 | 1365.8 ± 1.6 | –
293.15 K, x1 = 0.2525 | 835.69 ± 0.36 | 1381 ± 1.5 | –
293.15 K, x1 = 0.2907 | 837.925 ± 0.35 | 1390.2 ± 1.5 | –
293.15 K, x1 = 0.3942 | 844.247 ± 0.33 | 1417.8 ± 1.5 | –
293.15 K, x1 = 0.5086 | 851.229 ± 0.32 | 1450.5 ± 1.4 | –
293.15 K, x1 = 0.6059 | 857.577 ± 0.3 | 1482.3 ± 1.4 | –
293.15 K, x1 = 0.7125 | 865.791 ± 0.28 | 1522.6 ± 1.4 | –
293.15 K, x1 = 0.81 | 874.361 ± 0.27 | 1569 ± 1.4 | –
293.15 K, x1 = 0.8583 | 879.425 ± 0.26 | 1596.2 ± 1.3 | –
293.15 K, x1 = 0.9028 | 884.825 ± 0.25 | 1623.9 ± 1.3 | –
293.15 K, x1 = 0.945 | 890.109 ± 0.24 | 1652.7 ± 1.3 | –
298.15 K, x1 = 0.0773 | 820.463 ± 0.39 | 1321.6 ± 1.6 | 4.258 ± 0.039
298.15 K, x1 = 0.1213 | – | – | 4.169 ± 0.038
298.15 K, x1 = 0.1231 | 823.489 ± 0.38 | 1331.9 ± 1.6 | –
298.15 K, x1 = 0.1604 | 826.005 ± 0.38 | 1340.9 ± 1.6 | 4.072 ± 0.037
298.15 K, x1 = 0.1925 | 828.015 ± 0.37 | 1348.6 ± 1.6 | 4 ± 0.036
298.15 K, x1 = 0.2525 | 831.807 ± 0.36 | 1363.7 ± 1.5 | 3.832 ± 0.034
298.15 K, x1 = 0.2907 | 833.999 ± 0.35 | 1372.7 ± 1.5 | 3.72 ± 0.033
298.15 K, x1 = 0.3942 | 840.22 ± 0.33 | 1399.9 ± 1.5 | 3.357 ± 0.029
298.15 K, x1 = 0.5086 | 847.107 ± 0.31 | 1432.2 ± 1.4 | 2.926 ± 0.025
298.15 K, x1 = 0.6059 | 853.36 ± 0.3 | 1463.5 ± 1.4 | 2.528 ± 0.021
298.15 K, x1 = 0.7125 | 861.471 ± 0.28 | 1503.1 ± 1.4 | 2.149 ± 0.018
298.15 K, x1 = 0.81 | 869.926 ± 0.27 | 1548.7 ± 1.3 | 1.851 ± 0.015
298.15 K, x1 = 0.8583 | 874.936 ± 0.26 | 1575.4 ± 1.3 | 1.725 ± 0.014
298.15 K, x1 = 0.9028 | 880.277 ± 0.25 | 1602.8 ± 1.3 | 1.619 ± 0.014
298.15 K, x1 = 0.945 | 885.496 ± 0.24 | 1630.9 ± 1.3 | 1.536 ± 0.013
303.15 K, x1 = 0.0773 | 816.783 ± 0.39 | 1304.6 ± 1.6 | 3.578 ± 0.033
303.15 K, x1 = 0.1213 | 819.755 ± 0.38 | 1314.9 ± 1.6 | 3.551 ± 0.033
303.15 K, x1 = 0.1604 | 822.223 ± 0.37 | 1323.9 ± 1.6 | 3.51 ± 0.032
303.15 K, x1 = 0.1925 | 824.193 ± 0.37 | 1331.5 ± 1.6 | 3.452 ± 0.031
303.15 K, x1 = 0.2525 | 827.911 ± 0.36 | 1346.5 ± 1.5 | 3.324 ± 0.03
303.15 K, x1 = 0.2907 | 830.062 ± 0.35 | 1355.4 ± 1.5 | 3.234 ± 0.029
303.15 K, x1 = 0.3942 | 836.182 ± 0.33 | 1382.2 ± 1.5 | 2.91 ± 0.025
303.15 K, x1 = 0.5086 | 842.967 ± 0.31 | 1413.9 ± 1.4 | 2.537 ± 0.022
303.15 K, x1 = 0.6059 | 849.135 ± 0.3 | 1444.7 ± 1.4 | 2.194 ± 0.019
303.15 K, x1 = 0.7125 | 857.138 ± 0.28 | 1483.7 ± 1.4 | 1.88 ± 0.016
303.15 K, x1 = 0.81 | 865.482 ± 0.26 | 1528.5 ± 1.3 | 1.612 ± 0.014
303.15 K, x1 = 0.8583 | 870.432 ± 0.26 | 1554.7 ± 1.3 | 1.506 ± 0.013
303.15 K, x1 = 0.9028 | 875.713 ± 0.25 | 1581.5 ± 1.3 | 1.428 ± 0.012
303.15 K, x1 = 0.945 | 880.874 ± 0.24 | 1609.2 ± 1.3 | 1.336 ± 0.012
308.15 K, x1 = 0.0773 | 813.087 ± 0.39 | 1287.8 ± 1.6 | 3.066 ± 0.028
308.15 K, x1 = 0.1213 | 816.005 ± 0.38 | 1298.2 ± 1.6 | 3.025 ± 0.028
308.15 K, x1 = 0.1604 | 818.427 ± 0.37 | 1307 ± 1.6 | 2.971 ± 0.027
308.15 K, x1 = 0.1925 | 820.356 ± 0.37 | 1314.6 ± 1.6 | 2.923 ± 0.027
308.15 K, x1 = 0.2525 | 824 ± 0.36 | 1329.3 ± 1.5 | 2.814 ± 0.025
308.15 K, x1 = 0.2907 | 826.113 ± 0.35 | 1338.1 ± 1.5 | 2.737 ± 0.024
308.15 K, x1 = 0.3942 | 832.134 ± 0.33 | 1364.6 ± 1.5 | 2.479 ± 0.022
308.15 K, x1 = 0.5086 | 838.821 ± 0.31 | 1395.8 ± 1.4 | 2.174 ± 0.019
308.15 K, x1 = 0.6059 | 844.903 ± 0.3 | 1426.1 ± 1.4 | 1.892 ± 0.016
308.15 K, x1 = 0.7125 | 852.798 ± 0.28 | 1464.4 ± 1.4 | 1.62 ± 0.014
308.15 K, x1 = 0.81 | 861.03 ± 0.26 | 1508.5 ± 1.3 | 1.404 ± 0.012
308.15 K, x1 = 0.8583 | 865.917 ± 0.26 | 1534.1 ± 1.3 | 1.316 ± 0.012
308.15 K, x1 = 0.9028 | 871.143 ± 0.25 | 1560.6 ± 1.3 | 1.241 ± 0.011
308.15 K, x1 = 0.945 | 876.241 ± 0.24 | 1587.7 ± 1.3 | 1.18 ± 0.011
313.15 K, x1 = 0.0773 | 809.362 ± 0.39 | 1271.1 ± 1.6 | –
313.15 K, x1 = 0.1213 | 812.228 ± 0.38 | 1281.6 ± 1.6 | –
313.15 K, x1 = 0.1604 | 814.602 ± 0.37 | 1290.4 ± 1.6 | –
313.15 K, x1 = 0.1925 | 816.496 ± 0.37 | 1297.9 ± 1.6 | –
313.15 K, x1 = 0.2525 | 820.069 ± 0.36 | 1312.4 ± 1.5 | –
313.15 K, x1 = 0.2907 | 822.144 ± 0.35 | 1321.1 ± 1.5 | –
313.15 K, x1 = 0.3942 | 828.065 ± 0.33 | 1347 ± 1.5 | –
313.15 K, x1 = 0.5086 | 834.657 ± 0.31 | 1377.9 ± 1.4 | –
313.15 K, x1 = 0.6059 | 840.646 ± 0.3 | 1407.5 ± 1.4 | –
313.15 K, x1 = 0.7125 | 848.435 ± 0.28 | 1445.3 ± 1.4 | –
313.15 K, x1 = 0.81 | 856.554 ± 0.26 | 1488.5 ± 1.3 | –
313.15 K, x1 = 0.8583 | 861.384 ± 0.26 | 1513.6 ± 1.3 | –
313.15 K, x1 = 0.9028 | 866.55 ± 0.25 | 1539.7 ± 1.3 | –
313.15 K, x1 = 0.945 | 871.587 ± 0.24 | 1566.3 ± 1.3 | –
